Source: US5543147A, “Crystalline modification of 2,4-dioxo-6-methyl-1,2,3,4-tetrahydropyrimidine, a method for the preparation thereof and a medicinal preparation based on it” (Leonidov; Nikolai B., priority 1994, dated 1996)
Like-named read-outs stand apart in the source and are kept apart here.

Assays:
[1] = solubility of the crystalline powder; assay type: physicochemical
linear wounds = assay: wound-healing activity, model of linear wounds in rats (scar strength); assay type: in vivo, random-bred white male rats; conditions: for Strength of the scar: wounds pricked once daily for 3 days; for Strength of the scar / Increase of the scar strength as compared with control: claimed 0.25% solution, known 1% solution in 0.9% aqueous NaCl
Experimental: (§1) The tests were carried out in 2 groups of 41 random-bred white male rats weighing 200±10 g. The experimental model in the 1st group were linear wounds of 50 mm long inflicted on the backs of the rats. Depending on the crystalline form of the tested compound used the rats were divided into 3 series. The first series was control--the wounds were pricked once daily with 0.9% aqueous solution of sodium chloride (0.5 ml) for 3 days. In the 2nd series the wounds were pricked by the same method with 1% solution of the known crystalline form of the said compound in 0.9% aqueous solution of sodium chloride. In the 3rd series the wounds were pricked by the same method with 0.25% solution of the claimed compound in 0.9% aqueous solution of sodium chloride.
(§2) The results of trials of the wound-healing activity of the claimed and the known crystalline forms of the said compound were statistically treated with the confidence limit of 95%.

plane multilayer wounds = assay: wound-healing activity, plane multilayer wounds in rats; assay type: in vivo, random-bred white male rats; conditions: for Rate of healing at 7 days / Rate of healing at 10 days / Rate of healing at 15 days / Mean time of falling off of crusts / Mean time of healing / Speeding up of healing: claimed 0.25% solution, known 1% solution in 0.9% aqueous NaCl
Experimental: as §1
Plane multilayer wounds of 400 mm^2 in area inflicted on the backs of rats were an experimental model in the 2nd group of experiments. The animals were also divided into 3 series. Here, the pricking of the wound was done by the same schedule as in the 1st group. The parameters of the wound process in the time course at 7, 10 and 15 days after wound inflicting were assessed by the methods of tensiometry, planimetry and clinical observations. The time of falling off of crusts and complete healing of the wounds was determined. The rate of the wound area decrease (V) in the course of healing was calculated by the formula [formula] wherein So is the initial wound area, mm^2,
St the wound area on the day of measurement t, mm^2.
as §2

acute toxicity = assay type: in vivo, random-bred white mice, rats, and chinchilla rabbits
Experimental: (§3) Trials of the toxicity of the claimed crystalline modification of the said compound were carried out comparing it with the known crystalline form of the said compound.
(§4) Investigations of the general toxic effect of the claimed crystalline modification of 2,4-dioxo-6-methyl-1,2,3,4-tetrahydropyrimidine and the known crystalline form of the said compound were carried out in 3 […] species (random-bred white mice, rats, and chinchilla rabbits).

subacute toxicity = assay type: in vivo, random-bred white mice, rats, and chinchilla rabbits; conditions: subacute routes of inoculation
Experimental: as §3, §4

eyes = assay: safety of long-term subconjunctival inoculations (2-month toxicological experiment); assay type: in vivo, white rats and chinchilla rabbits
Experimental: The study on the safety of long-term subconjunctival inoculations of the claimed modification in comparison with the known form of the said compound was carried out in a 2-month-long toxicological experiment in 148 mature male and female white rats and 49 male and female chinchilla rabbits.
Male rats and rabbits were given subconjunctivally I drop each of 2%, 25% and 50% suspension of the claimed modification of the said compound into each eye once daily. The results obtained were compared with those in a group of male rats and rabbits given one drop of 2% suspension of the known form of the said compound into the eye. Besides, a 2% suspension of the claimed modification of the said compound was given to a group of female rats and rabbits which were compared with the control group. In a separate series of experiments in the same animals (rats, rabbits) carried out by the same schedule of a chronic experiment, the effect of the claimed pharmaceutical in the form of an eye ointment containing as the active substance the claimed modification of the said compound was determined. The results of this study confirm the data obtained in the studies of the effect of the claimed compound. Comparisons with the pharmaceutical containing the known form of the said compound gave analogous results.

[2] = system: allergenic and immunotoxic properties; assay: studies of the allergenic and immunotoxic properties
[3] = rate of dissolution of the active substance (rotary basket); assay type: physicochemical; conditions: water for injections 1000 ml, 37±1° C, 50 rpm, 0.25 g, 0 to 45 min
Experimental: The rate of dissolution of the active substance is determined in a "rotary basket" type DT-D6 apparatus (Erweka Co, BRD) at a mixing rate of 50 rpm. The dissolving medium is water for injections in a volume of 1000 ml at a temperature of 37±1° C. The content of the active substance in the solution is determined spectrophotometrically in a spectrophotometr No. 75 (Perkin-Elmer Co) at a wave length of 259 nm. For comparison, the known crystalline form of the said compound is used under identical conditions. The parameter for comparison is the constant of dissolution rate based on the mean results of the compound transition into solution from the amount thereof used (0.25 g) in the time of 0 to 45 min. The water for injections is used as a control.

wounds = assay: preliminary experiments on the wound-healing effect; assay type: in vivo
[4] = prior-art description, cited from earlier work

For `Cc1cc(O)nc(O)n1` [claimed modification, 2,4-dioxo-6-methyl-1,2,3,4-tetrahydropyrimidine], the solubility in chloroform ([1]; chloroform) was “practically insoluble”, the “solubility in ethyl alcohol” value ([1]; ethyl alcohol) was “poorly soluble” and the “solubility in ethyl ether” value ([1]; ethyl ether) was “practically insoluble”. The solubility in water ([1]; water) was “poorly soluble”, the “increase of rupture strength of linear wounds as compared with the control” value (linear wounds; 7 days) was 90.4% and the “increase of rupture strength of linear wounds as compared with the known form of the compound” value (linear wounds; 7 days, 0.25% vs 1% solution) was 43%. For the same molecule, the “Strength of the scar” value (linear wounds; 7 days) was 57.3 ± 9.0 g/mm^2, the “Increase of the scar strength as compared with control” value (linear wounds) was 90.4 and the “shortening of time of complete healing of plane wounds as compared with the control” value (plane multilayer wounds) was 26.2%. The “shortening of time of complete healing of plane wounds as compared with the known form of the compound” value (plane multilayer wounds; 0.25% vs 1% solution) was 12%, the “Rate of healing at 7 days” value (plane multilayer wounds) was 61.6 ± 6.3% and the “Rate of healing at 10 days” value (plane multilayer wounds) was 89.0 ± 4.9%. The “Rate of healing at 15 days” value (plane multilayer wounds) was 95.4 ± 3.8%, the “Mean time of falling off of crusts” value (plane multilayer wounds) was 8.6 ± 0.7 days and the “Mean time of healing” value (plane multilayer wounds) was 17.7 ± 1.6 days. For the same molecule, the “Speeding up of healing” value (plane multilayer wounds) was 26.2%, the “class of toxicity (acute toxicity)” value (acute toxicity) was “Vth class of toxicity (practically non-toxic compounds)” and the “class of toxicity (acute toxicity, intraperitoneal route)” value (acute toxicity; intraperitoneal) was “VI class of relatively harmless compounds”. For the same molecule, the mean lethal dose (acute toxicity; subconjunctival route) was “could not be established”, the cumulative effect (subacute toxicity) was “weak” and the “microscopic changes in the eye” value (eyes; large doses) was “lymphoid infiltrates were formed in the ciliary body, iris, and sometimes in the initial parts of the optic nerve, but these changes were reversible”. For the same molecule, the “macroscopic local inflammatory reactions of the eyes” value (eyes; long-term administration) was “no macroscopic local inflammatory reactions of the eyes”, the “formation of the tumor necrosis factor” value [2] was “not to be conducive to the formation of the tumor necrosis factor” and the “functional activity of the B-cell immunity” value [2] was “no effect on the functional activity of the B-cell immunity”. The “functional activity of the Te-cell immunity” value [2] was “not to inhibit the functional activity of the Te-cell immunity”, the specific leukocyte lysis [2] was “no specific leukocyte lysis” and the “specific reaction of leukocyte agglomeration” value [2] was “no specific reaction of leukocyte agglomeration”. For the same molecule, the “allergenic and immunotoxic properties” value ([2]; overall) was “no allergenic and immunotoxic properties”, the “constant of the dissolution rate K” value [3] was 0.025 min⁻¹ and the “concentration of solution at which significant (comparable) wound-healing effect was manifested” value (wounds) was 0.25 % by weight.
In the case of `Cc1cc(O)nc(O)n1` [known form, 2,4-dioxo-6-methyl-1,2,3,4-tetrahydropyrimidine], the “Strength of the scar” value (linear wounds; 7 days) is reported as 40.1 ± 5.0 g/mm^2, the “Increase of the scar strength as compared with control” value (linear wounds) is reported as 33.2 and the “Rate of healing at 7 days” value (plane multilayer wounds) is reported as 57.5 ± 8.3%. The “Rate of healing at 10 days” value (plane multilayer wounds) was 80.2 ± 2.0%, the “Rate of healing at 15 days” value (plane multilayer wounds) was 90.2 ± 2.8% and the “Mean time of falling off of crusts” value (plane multilayer wounds) was 9.6 ± 0.5 days. The “Mean time of healing” value (plane multilayer wounds) was 18.4 ± 1.6 days, the “Speeding up of healing” value (plane multilayer wounds) was 23.3% and the “class of toxicity (acute toxicity)” value (acute toxicity) was “slightly higher toxicity, although they belong to the same group”. For the same molecule, the “constant of the dissolution rate K” value [3] was 0.18 min⁻¹, the “concentration of solution at which significant (comparable) wound-healing effect was manifested” value (wounds) was 1 % by weight and the solubility in chloroform ([4]; chloroform) was “insoluble”. For the same molecule, the solubility in ether ([4]; ether) was “insoluble”, the “solubility in ethyl alcohol” value ([4]; ethyl alcohol) was “poorly soluble” and the solubility in water ([4]; water) was “poorly soluble”.
